Assay results from ChEMBL document CHEMBL1201861, “Genomics of Drug Sensitity in Cancer screening data, Wellcome Trust Sanger Institute”.

What was measured:
BB49-HNC = experiment: cells; format: functional, cell-based, Homo sapiens; conditions: Homo sapiens, BB49-HNC;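 note: cell viability assay read-out, reported as inhibition of BB49-HNC cell growth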
Description: SANGER: Inhibition of human BB49-HNC cell growth in a cell viability assay.

SCC-9 = experiment: cells; format: functional, cell-based, Homo sapiens; conditions: Homo sapiens, SCC-9;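 note: Read-out is a cell viability assay, with values giving inhibition of cell growth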
Description: SANGER: Inhibition of human SCC-9 cell growth in a cell viability assay.

HD-MY-Z = experiment: cells; format: functional, cell-based, Homo sapiens; conditions: Homo sapiens, HD-MY-Z;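 note: growth inhibition of HD-MY-Z cells, read out with a cell viability assay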
Description: SANGER: Inhibition of human HD-MY-Z cell growth in a cell viability assay.

NCI-H1770 = experiment: cells; format: functional, cell-based, Homo sapiens; conditions: Homo sapiens, NCI-H1770;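 note: growth inhibition of NCI-H1770 cells determined with a viability readout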
Description: SANGER: Inhibition of human NCI-H1770 cell growth in a cell viability assay.

Panc1005 = experiment: cells; format: functional, cell-based, Homo sapiens; conditions: Homo sapiens, Panc1005;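 note: growth inhibition of human PANC-10-05 cells, measured by a cell viability assay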
Description: SANGER: Inhibition of human PANC-10-05 cell growth in a cell viability assay.

ChaGo-K-1 = experiment: cells; format: functional, cell-based, Homo sapiens; conditions: Homo sapiens, ChaGo-K-1;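 note: growth inhibition of ChaGo-K-1 cells, read out with a cell viability assay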
Description: SANGER: Inhibition of human ChaGo-K-1 cell growth in a cell viability assay.

NCI-H1155 = experiment: cells; format: functional, cell-based, Homo sapiens; conditions: Homo sapiens, NCI-H1155
Description: SANGER: Inhibition of human NCI-H1155 cell growth in a cell viability assay.

NCI-H1355 = experiment: cells; format: functional, cell-based, Homo sapiens; conditions: Homo sapiens, NCI-H1355;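 note: growth inhibition of human NCI-H1355 cells, read out by a cell viability assay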
Description: SANGER: Inhibition of human NCI-H1355 cell growth in a cell viability assay.

NCI-H1623 = experiment: cells; format: functional, cell-based, Homo sapiens; conditions: Homo sapiens, NCI-H1623;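 note: cell viability assay used as the read-out for growth inhibition of NCI-H1623 cells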
Description: SANGER: Inhibition of human NCI-H1623 cell growth in a cell viability assay.

NOS-1 = experiment: cells; format: functional, cell-based, Homo sapiens; conditions: Homo sapiens, NOS-1;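 note: growth inhibition of the human NOS-1 cell line, read out with a cell viability assay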
Description: SANGER: Inhibition of human NOS-1 cell growth in a cell viability assay.

EB-3 = experiment: cells; format: functional, cell-based, Homo sapiens; conditions: Homo sapiens, EB-3;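 note: human EB-3 cells, growth inhibition read out via a cell viability assay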
Description: SANGER: Inhibition of human EB-3 cell growth in a cell viability assay.

BL-70 = experiment: SANGER: Inhibition of human BL-70 cell growth in a cell viability assay.; format: functional, cell-based; conditions: Homo sapiens, BL-70
LB647-SCLC = experiment: cells; format: functional, cell-based, Homo sapiens; conditions: Homo sapiens, LB647-SCLC;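 note: cell growth inhibition, read out by a viability assay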
Description: SANGER: Inhibition of human LB647-SCLC cell growth in a cell viability assay.

A-375 = experiment: cells; format: functional, cell-based, Homo sapiens; conditions: Homo sapiens, A-375;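 note: growth inhibition of A375 cells, read out with a cell viability assay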
Description: SANGER: Inhibition of human A375 cell growth in a cell viability assay.

NCI-H1437 = experiment: cells; format: functional, cell-based, Homo sapiens; conditions: Homo sapiens, NCI-H1437;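 note: growth inhibition of human NCI-H1437 cells, read out by a cell viability assay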
Description: SANGER: Inhibition of human NCI-H1437 cell growth in a cell viability assay.

NY = experiment: cells; format: functional, cell-based, Homo sapiens; conditions: Homo sapiens, NY
Description: SANGER: Inhibition of human NY cell growth in a cell viability assay.

GP5d = experiment: cells; format: functional, cell-based, Homo sapiens; conditions: Homo sapiens, GP5d;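 note: growth inhibition of human GP5d cells, read out with a cell viability assay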
Description: SANGER: Inhibition of human GP5d cell growth in a cell viability assay.

RS4-11 = experiment: cells; format: functional, cell-based, Homo sapiens; conditions: Homo sapiens, RS4-11;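 note: growth inhibition of RS4-11 cells, read out by a cell viability assay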
Description: SANGER: Inhibition of human RS4-11 cell growth in a cell viability assay.

DU-4475 = experiment: cells; format: functional, cell-based, Homo sapiens; conditions: Homo sapiens, DU-4475
Description: SANGER: Inhibition of human DU-4475 cell growth in a cell viability assay.

GI-ME-N = experiment: cells; format: functional, cell-based, Homo sapiens; conditions: Homo sapiens, GI-ME-N;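 note: growth inhibition of human GI-ME-N cells, read out with a cell viability assay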
Description: SANGER: Inhibition of human GI-ME-N cell growth in a cell viability assay.

NCI-H2141 = experiment: cells; format: functional, cell-based, Homo sapiens; conditions: Homo sapiens, NCI-H2141;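 note: growth inhibition of human NCI-H2141 cells, read out with a cell viability assay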
Description: SANGER: Inhibition of human NCI-H2141 cell growth in a cell viability assay.

KURAMOCHI = experiment: cells; format: functional, cell-based, Homo sapiens; conditions: Homo sapiens, KURAMOCHI;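 note: growth inhibition of KURAMOCHI cells, read out with a cell viability assay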
Description: SANGER: Inhibition of human KURAMOCHI cell growth in a cell viability assay.

EGI-1 = experiment: cells; format: functional, cell-based, Homo sapiens; conditions: Homo sapiens, EGI-1;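 note: cell viability readout used to gauge growth inhibition of EGI-1 cells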
Description: SANGER: Inhibition of human EGI-1 cell growth in a cell viability assay.

MKN-7 = experiment: cells; format: functional, cell-based, Homo sapiens; conditions: Homo sapiens, MKN-7;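 note: growth inhibition of MKN-7 cells, read out with a cell viability assay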
Description: SANGER: Inhibition of human MKN7 cell growth in a cell viability assay.

CAPAN-1 = experiment: cells; format: functional, cell-based, Homo sapiens; conditions: Homo sapiens, CAPAN-1;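 note: growth suppression of CAPAN-1 cells, read out by a cell viability assay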
Description: SANGER: Inhibition of human CAPAN-1 cell growth in a cell viability assay.

WM-115 = experiment: cells; format: functional, cell-based, Homo sapiens; conditions: Homo sapiens, WM-115
Description: SANGER: Inhibition of human WM-115 cell growth in a cell viability assay.

A101D = experiment: cells; format: functional, cell-based, Homo sapiens; conditions: Homo sapiens, A101D;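 note: growth inhibition of the cell line, measured with a viability assay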
Description: SANGER: Inhibition of human A101D cell growth in a cell viability assay.

KP-4 = experiment: cells; format: functional, cell-based, Homo sapiens; conditions: Homo sapiens, KP-4;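 note: human KP-4 cells, with growth inhibition read out through a cell viability assay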
Description: SANGER: Inhibition of human KP-4 cell growth in a cell viability assay.

BHY = experiment: cells; format: functional, cell-based, Homo sapiens; conditions: Homo sapiens, BHY;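 note: cell growth inhibition read out by a viability assay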
Description: SANGER: Inhibition of human BHY cell growth in a cell viability assay.

COLO-741 = experiment: cells; format: functional, cell-based, Homo sapiens; conditions: Homo sapiens, COLO-741
Description: SANGER: Inhibition of human COLO-741 cell growth in a cell viability assay.

EVSA-T = experiment: cells; format: functional, cell-based, Homo sapiens; conditions: Homo sapiens, EVSA-T;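 note: growth inhibition of EVSA-T cells, read out with a cell viability assay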
Description: SANGER: Inhibition of human EVSA-T cell growth in a cell viability assay.

NCI-H69 = experiment: cells; format: functional, cell-based, Homo sapiens; conditions: Homo sapiens, NCI-H69;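 note: growth inhibition of the cell line, read out with a cell viability assay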
Description: SANGER: Inhibition of human NCI-H69 cell growth in a cell viability assay.

NCI-H522 = experiment: cells; format: functional, cell-based, Homo sapiens; conditions: Homo sapiens, NCI-H522;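 note: cell viability assay measuring growth inhibition of human NCI-H522 cells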
Description: SANGER: Inhibition of human NCI-H522 cell growth in a cell viability assay.

WSU-NHL = experiment: cells; format: functional, cell-based, Homo sapiens; conditions: Homo sapiens, WSU-NHL;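 note: growth inhibition of human WSU-NHL cells, read out with a cell viability assay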
Description: SANGER: Inhibition of human WSU-NHL cell growth in a cell viability assay.

U-118-MG = experiment: cells; format: functional, cell-based, Homo sapiens; conditions: Homo sapiens, U-118-MG
Description: SANGER: Inhibition of human U-118-MG cell growth in a cell viability assay.

BEN = experiment: cells; format: functional, cell-based, Homo sapiens; conditions: Homo sapiens, BEN;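 note: growth inhibition of the BEN cell line, read out with a cell viability assay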
Description: SANGER: Inhibition of human BEN cell growth in a cell viability assay.

NCI-H719 = experiment: cells; format: functional, cell-based, Homo sapiens; conditions: Homo sapiens, NCI-H719;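 note: growth inhibition of the cultured cell line, read out with a viability assay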
Description: SANGER: Inhibition of human NCI-H719 cell growth in a cell viability assay.

NCI-H82 = experiment: cells; format: functional, cell-based, Homo sapiens; conditions: Homo sapiens, NCI-H82;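 note: growth inhibition of NCI-H82 cells, measured with a cell viability readout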
Description: SANGER: Inhibition of human NCI-H82 cell growth in a cell viability assay.

LAN-6 = experiment: cells; format: functional, cell-based, Homo sapiens; conditions: Homo sapiens, LAN-6;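 note: growth inhibition of LAN-6 cells, determined with a cell viability assay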
Description: SANGER: Inhibition of human LAN-6 cell growth in a cell viability assay.

LB1047-RCC = experiment: cells; format: functional, cell-based, Homo sapiens; conditions: Homo sapiens, LB1047-RCC
Description: SANGER: Inhibition of human LB1047-RCC cell growth in a cell viability assay.

S-117 = experiment: cells; format: functional, cell-based, Homo sapiens; conditions: Homo sapiens, S-117
Description: SANGER: Inhibition of human S-117 cell growth in a cell viability assay.

NCI-H1650 = experiment: cells; format: functional, cell-based, Homo sapiens; conditions: Homo sapiens, NCI-H1650;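 note: growth inhibition of human NCI-H1650 cells measured by a cell viability assay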
Description: SANGER: Inhibition of human NCI-H1650 cell growth in a cell viability assay.

LN-405 = experiment: cells; format: functional, cell-based, Homo sapiens; conditions: Homo sapiens, LN-405
Description: SANGER: Inhibition of human LN-405 cell growth in a cell viability assay.

5637 = experiment: cells; format: functional, cell-based, Homo sapiens; conditions: Homo sapiens
Description: SANGER: Inhibition of human 5637 cell growth in a cell viability assay.

AGS = experiment: cells; format: functional, cell-based, Homo sapiens; conditions: Homo sapiens, AGS;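 note: growth inhibition of AGS cells, determined with a cell viability assay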
Description: SANGER: Inhibition of human AGS cell growth in a cell viability assay.

COR-L105 = experiment: cells; format: functional, cell-based, Homo sapiens; conditions: Homo sapiens, COR-L105
Description: SANGER: Inhibition of human COR-L105 cell growth in a cell viability assay.

Ca9-22 = experiment: cells; format: functional, cell-based, Homo sapiens; conditions: Homo sapiens, Ca9-22;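 note: growth inhibition of Ca9-22 cells, read out with a cell viability assay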
Description: SANGER: Inhibition of human Ca9-22 cell growth in a cell viability assay.

NCI-H1573 = experiment: cells; format: functional, cell-based, Homo sapiens; conditions: Homo sapiens, NCI-H1573;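 note: growth inhibition of NCI-H1573 cells, read out with a cell viability assay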
Description: SANGER: Inhibition of human NCI-H1573 cell growth in a cell viability assay.

N#Cc1c(O)c2c(-c3ccc(-c4ccccc4O)cc3)csc2[nH]c1=O
IC50 (BB49-HNC): > 1020 nM | IC50 (SCC-9): > 1020 nM | IC50 (HD-MY-Z): 148 nM | IC50 (NCI-H1770): 109 nM | IC50 (Panc1005): > 1020 nM | IC50 (ChaGo-K-1): > 1020 nM | IC50 (NCI-H1155): > 1020 nM | IC50 (NCI-H1355): > 1020 nM | IC50 (NCI-H1623): > 1020 nM | IC50 (NOS-1): > 1020 nM | IC50 (EB-3): 293 nM | IC50 (BL-70): 108 nM | IC50 (LB647-SCLC): 622 nM | IC50 (A-375): > 1020 nM | IC50 (NCI-H1437): > 1020 nM | IC50 (NY): > 1020 nM | IC50 (GP5d): > 1020 nM | IC50 (RS4-11): 85.7 nM | IC50 (DU-4475): > 1020 nM | IC50 (GI-ME-N): > 1020 nM | IC50 (NCI-H2141): 633 nM | IC50 (KURAMOCHI): > 1020 nM | IC50 (EGI-1): > 1020 nM | IC50 (MKN-7): > 1020 nM | IC50 (CAPAN-1): 256 nM | IC50 (WM-115): > 1020 nM | IC50 (A101D): > 1020 nM | IC50 (KP-4): > 1020 nM | IC50 (BHY): > 1020 nM | IC50 (COLO-741): > 1020 nM | IC50 (EVSA-T): 381 nM | IC50 (NCI-H69): > 1020 nM | IC50 (NCI-H522): > 1020 nM | IC50 (WSU-NHL): 297 nM | IC50 (U-118-MG): > 1020 nM | IC50 (BEN): > 1020 nM | IC50 (NCI-H719): > 1020 nM | IC50 (NCI-H82): > 1020 nM | IC50 (LAN-6): > 1020 nM | IC50 (LB1047-RCC): > 1020 nM | IC50 (S-117): > 1020 nM | IC50 (NCI-H1650): > 1020 nM | IC50 (LN-405): > 1020 nM | IC50 5637: > 1020 nM | IC50 (AGS): > 1020 nM | IC50 (COR-L105): > 1020 nM | IC50 (Ca9-22): > 1020 nM

Oc1ccc2ccccc2c1SSc1c(O)ccc2ccccc12
IC50 (BB49-HNC): > 32000 nM | IC50 (SCC-9): > 32000 nM | IC50 (HD-MY-Z): > 32000 nM | IC50 (NCI-H1770): > 32000 nM | IC50 (Panc1005): > 32000 nM | IC50 (ChaGo-K-1): > 32000 nM | IC50 (NCI-H1155): > 32000 nM | IC50 (NCI-H1355): > 32000 nM | IC50 (NCI-H1623): > 32000 nM | IC50 (NOS-1): 11700 nM | IC50 (EB-3): 10500 nM | IC50 (BL-70): 2040 nM | IC50 (LB647-SCLC): 7300 nM | IC50 (A-375): > 32000 nM | IC50 (NCI-H1437): > 32000 nM | IC50 (NY): > 32000 nM | IC50 (GP5d): > 32000 nM | IC50 (RS4-11): 23200 nM | IC50 (DU-4475): > 32000 nM | IC50 (GI-ME-N): > 32000 nM | IC50 (NCI-H2141): > 32000 nM | IC50 (KURAMOCHI): > 32000 nM | IC50 (EGI-1): > 32000 nM | IC50 (MKN-7): > 32000 nM | IC50 (CAPAN-1): > 32000 nM | IC50 (WM-115): > 32000 nM | IC50 (A101D): > 32000 nM | IC50 (KP-4): > 32000 nM | IC50 (BHY): 24500 nM | IC50 (COLO-741): 18000 nM | IC50 (EVSA-T): > 32000 nM | IC50 (NCI-H69): > 32000 nM | IC50 (NCI-H522): > 32000 nM | IC50 (WSU-NHL): 5520 nM | IC50 (U-118-MG): > 32000 nM | IC50 (BEN): > 32000 nM | IC50 (NCI-H719): 12900 nM | IC50 (NCI-H82): > 32000 nM | IC50 (LAN-6): > 32000 nM | IC50 (LB1047-RCC): > 32000 nM | IC50 (S-117): 31400 nM | IC50 (NCI-H1650): > 32000 nM | IC50 (LN-405): > 32000 nM | IC50 (NCI-H1573): > 32000 nM | IC50 5637: > 32000 nM | IC50 (AGS): > 32000 nM | IC50 (COR-L105): 7360 nM | IC50 (Ca9-22): 28100 nM
